Assay results: EPA's ToxRefDB 2

How the values were obtained:
rat [1] = conditions: Prenatal developmental toxicity study, sprague dawley, Oral, Gavage/Intubation, dose end: 17 GD
dog [2] = conditions: Chronic toxicity, beagle, Oral, Gavage/Intubation, dose end: 6 month, group: systemic
dog [3] = conditions: Chronic toxicity, beagle, Oral, Gavage/Intubation, dose end: 1 year, group: systemic
dog [4] = conditions: Sub-acute repeat dose toxicity, beagle, Oral, Capsule, dose end: 4 week, group: systemic
rat [5] = conditions: Fertility (Segment I); sprague dawley; Oral; Gavage/Intubation; dose end: 7 GD; group: parental; systemic / in life observation / body weight / body weight gain + systemic / in life observation / clinical signs / motor activity + …
rat [6] = conditions: Prenatal developmental toxicity study, sprague dawley, Oral, Gavage/Intubation, dose end: 17 GD; remark: listed apart in the source
rat [7] = conditions: Sub-acute repeat dose toxicity; sprague dawley; Oral; Gavage/Intubation; dose end: 28 day; group: systemic; systemic / in life observation / body weight / body weight gain + systemic / in life observation / clinical signs / alopecia + systemic / in…
rat [8] = conditions: Chronic toxicity, sprague dawley, Oral, Gavage/Intubation, dose end: 6 month, group: systemic
rabbit [9] = conditions: Prenatal developmental toxicity study, himalayan, Oral, Gavage/Intubation, dose end: 19 GD
rabbit [10] = conditions: Prenatal developmental toxicity study, himalayan, Oral, Gavage/Intubation, dose end: 19 GD; remark: listed apart in the source
[11] = group: developmental, developmental / developmental malformation / bone / [other] + developmental / developmental malformation / bone / absent + developmental / …
[12] = group: maternal, systemic / in life observation / body weight / body weight gain + systemic / in life observation / food consumption / food consumption + …
[13] = systemic / in life observation / body weight / body weight gain + systemic / in life observation / clinical signs / vomitting
[14] = systemic / in life observation / body weight / body weight gain + systemic / in life observation / clinical signs / vomitting + systemic / …
[15] = systemic / in life observation / body weight / body weight gain + systemic / pathology microscopic / eye / opacity
[16] = systemic / in life observation / clinical signs / convulsions + systemic / in life observation / clinical signs / general pallor + systemic…
[17] = systemic / in life observation / body weight / body weight gain + systemic / in life observation / food consumption / food consumption + …
[18] = systemic / pathology microscopic / larynx / inflammation
[19] = group: developmental, systemic / in life observation / body weight / fetal weight
[20] = group: maternal, reproductive / reproductive performance / postimplantation loss / postimplantation loss + reproductive / reproductive performance / …
[21] = systemic / in life observation / clinical signs / convulsions + systemic / in life observation / mortality / mortality + systemic / …
[22] = systemic / pathology microscopic / adrenal gland / dilatation + systemic / pathology microscopic / thyroid gland / hyperplasia + systemic / …
[23] = group: maternal, systemic / in life observation / body weight / body weight + systemic / in life observation / body weight / body weight gain + systemic / in…
[24] = group: maternal, systemic / in life observation / food consumption / food consumption
[25] = group: maternal, systemic / in life observation / food consumption / food consumption + systemic / in life observation / body weight / body weight + systemic…

SMILES: O=C(Oc1ccc(Br)cc1)N1CCN2CCC1CC2
- LOAEL (rat [1]; [11]): 50 mg/kg/day
- NEL (rat [1]; [11]): 5 mg/kg/day
- NOAEL (rat [1]; [11]): 20 mg/kg/day
- LEL (rat [1]; group: developmental, developmental / developmental malformation / bone / incomplete ossification): 20 mg/kg/day
- LOAEL (rat [1]; [12]): 50 mg/kg/day
- NEL (rat [1]; [12]): 5 mg/kg/day
- NOAEL (rat [1]; [12]): 20 mg/kg/day
- LEL (rat [1]; group: maternal, systemic / organ weight / uterus / nos): 20 mg/kg/day
- LEL (dog [2]; [13]): 1.5 mg/kg/day
- NEL (dog [2]; [13]): < 1.5 mg/kg/day
- LOAEL (dog [2]; [14]): > 15 mg/kg/day
- NOAEL (dog [2]; [14]): ≥ 15 mg/kg/day
- LEL (dog [3]; [15]): 5 mg/kg/day
- NEL (dog [3]; [15]): < 5 mg/kg/day
- LOAEL (dog [3]; [16]): > 12.5 mg/kg/day
- NOAEL (dog [3]; [16]): ≥ 12.5 mg/kg/day
- LOAEL (dog [4]; [17]): > 30 mg/kg/day
- NOAEL (dog [4]; [17]): ≥ 30 mg/kg/day
- LEL (dog [4]; [18]): 3 mg/kg/day
- NEL (dog [4]; [18]): < 3 mg/kg/day
- LEL (rat [5]): 50 mg/kg/day
- LOAEL (rat [5]): 50 mg/kg/day
- NEL (rat [5]): 20 mg/kg/day
- NOAEL (rat [5]): 20 mg/kg/day
- LEL (rat [6]; [19]): 75 mg/kg/day
- LOAEL (rat [6]; [19]): > 75 mg/kg/day
- NEL (rat [6]; [19]): 25 mg/kg/day
- NOAEL (rat [6]; [19]): ≥ 75 mg/kg/day
- LOAEL (rat [6]; [20]): > 75 mg/kg/day
- NEL (rat [6]; [20]): 5 mg/kg/day
- NOAEL (rat [6]; [20]): ≥ 75 mg/kg/day
- LEL (rat [6]; group: maternal, reproductive / reproductive performance / preimplantation loss / preimplantation loss + systemic / in life observation / body weight / body …): 25 mg/kg/day
- LEL (rat [7]): 5 mg/kg/day
- LOAEL (rat [7]): 25 mg/kg/day
- NEL (rat [7]): < 5 mg/kg/day
- NOAEL (rat [7]): 5 mg/kg/day
- LOAEL (rat [8]; [21]): 75 mg/kg/day
- NOAEL (rat [8]; [21]): 25 mg/kg/day
- LEL (rat [8]; [22]): 5 mg/kg/day
- NEL (rat [8]; [22]): < 5 mg/kg/day
- LEL (rabbit [9]; [19]): 30 mg/kg/day
- LOAEL (rabbit [9]; [19]): > 30 mg/kg/day
- NEL (rabbit [9]; [19]): 10 mg/kg/day
- NOAEL (rabbit [9]; [19]): ≥ 30 mg/kg/day
- LEL (rabbit [9]; [23]): 10 mg/kg/day
- LOAEL (rabbit [9]; [23]): > 30 mg/kg/day
- NEL (rabbit [9]; [23]): 3 mg/kg/day
- NOAEL (rabbit [9]; [23]): ≥ 30 mg/kg/day
- LEL (rabbit [10]; [19]): 24 mg/kg/day
- LOAEL (rabbit [10]; [19]): > 24 mg/kg/day
- NEL (rabbit [10]; [19]): 8 mg/kg/day
- NOAEL (rabbit [10]; [19]): ≥ 24 mg/kg/day
- LEL (rabbit [10]; [24]): 3 mg/kg/day
- NEL (rabbit [10]; [24]): < 3 mg/kg/day
- LOAEL (rabbit [10]; [25]): > 24 mg/kg/day
- NOAEL (rabbit [10]; [25]): ≥ 24 mg/kg/day
